System: Homo sapiens
Experiment: Evaluation of pharmacokinetic parameters for PERINDOPRIL and its active metabolite, PERINDOPRILAT,following single oral administration of PERINDOPRIL ERBUMINE tablets
Format: ADME, organism-based
Details: in vivo, dosed compound id 11, dosed compound name PERINDOPRIL ERBUMINE, tissue Plasma

F	Protein binding	Tmax	t1/2	t1/2-elimination	SMILES
25%	10 to 20%	3 to 7 h	3 to 10 h	30 to 120 h	CCC[C@H](N[C@@H](C)C(=O)N1[C@H](C(=O)O)C[C@@H]2CCCC[C@@H]21)C(=O)O [PERINDOPRILAT]
75%	60%	1 h	–	0.8 to 1 h	CC(C)(C)N.CCC[C@H](N[C@@H](C)C(=O)N1[C@H](C(=O)O)C[C@@H]2CCCC[C@@H]21)C(=O)OCC [PERINDOPRIL ERBUMINE]

— ChEMBL document CHEMBL3832555, “DailyMed|setid=f0492050-a966-41be-80b5-a58da7ba2bcf | PERINDOPRIL ERBUMINE-perindopril erbumine tablet|Lannett Company, Inc”
